Source: article PMC5515969, “Effects of 31 FDA approved small-molecule kinase inhibitors on isolated rat liver mitochondria” (Archives of Toxicology, 2016)
Where two headings read alike, the source gives them in different places.

What was measured:
RCC II = biological target: T1, RCC II (Rattus norvegicus, UniProt P21913+Q641Z9+Q6PCT8+Q920L2); assay: RCC II activity in submitochondrial particles; type: biochemical; parameters: key: activity relative to DMSO-treated controls (control set as 1 = 100%)
T1 construct: Submitochondrial particles were prepared by subjecting the intact mitochondria to three successive freeze–thaw cycles; from tissue; host or cells: rat liver mitochondria, used as submitochondrial particles
Procedure, shortened: (§1)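 Inhibitors preincubated 15 min with submitochondrial particles (1 mg/ml) before activity readout. RCC I (rotenone-sensitive fraction) and I/V: A340, and RCC II: A600, each every 1 min for 6 min; RCC III/IV: A550 every 10 s for 2 min. Activities relative to DMSO control set as 1.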

RCC I = RCC I activity in submitochondrial particles; type: biochemical, rat; parameters: key to RCC I at 10XCmax / RCC I at 100XCmax / RCC I at 50XCmax / RCC I at 30XCmax / RCC I at 20XCmax: activity relative to DMSO-treated controls (control set as 1 = 100%); details: 10XCmax
Procedure, shortened: as §1

[1] = test system: isolated rat liver mitochondria; assay: Mitochondrial inner membrane potential (MMP), Rhodamine 123; type: biochemical; details: difference in signal between KI and DMSO treated samples at the end of experiments
Source text: Fig. 3 KI effects on mitochondrial inner membrane potential (MMP). […] In a, c, data are means and standard derivations from three separate experiments. *p < 0.05 as compared to DMSO-treated samples at the end of experiments. In b, data are means of two independent experiments

RCC V = RCC V activity in submitochondrial particles; type: biochemical, rat; on RCC V at 5XCmax: key: 0 indicates that the drug had no effects (negative)
Procedure, shortened: as §1

[2] = test system: isolated rat liver mitochondria; assay: Mitochondrial swelling (absorbance at 535 nm); type: biochemical; details: difference in signal between KI and DMSO treated samples at the end of experiments; on Swelling 5XCmax: key: 0 indicates that the drug had no effects (negative)
[3] = test system: isolated rat liver mitochondria; assay: Mitochondrial oxygen consumption (glutamate/malate or succinate driven, state 4 and state 3); type: biochemical; details: DMSO treated samples set as 1; on State 3 respiration driven by succinate at 10XCmax: key: 0 indicates that the drug had no effects (negative); on State 3 respiration driven by succinate at 1XCmax: key: 0 indicates that the drug had no effects (negative)
Procedure, shortened: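 Rat liver mitochondria (1 mg/ml protein) exposed 5 min to kinase inhibitors in 0.1% DMSO, then O2 consumption measured by Clark-type electrode with glutamate/malate or succinate (state 4), ADP added after 3 min (state 3). Rates normalized to 0.1% DMSO controls set to 1.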

[4] = ref product labeling, cited from earlier work
[5] = ref product labeling, cited from earlier work; remark: listed apart in the source
RCC IV = RCC IV activity in submitochondrial particles; type: biochemical, rat; parameters: key to RCC IV at 50XCmax / RCC IV at 100XCmax: activity relative to DMSO-treated controls (control set as 1 = 100%); details: 50XCmax, in %
Procedure, shortened: as §1

[6] = test system: isolated rat liver mitochondria; details: positive control alamethicin treated samples
[7] = relative to DMSO treated samples

T1 sequence (Q920L2 35-656): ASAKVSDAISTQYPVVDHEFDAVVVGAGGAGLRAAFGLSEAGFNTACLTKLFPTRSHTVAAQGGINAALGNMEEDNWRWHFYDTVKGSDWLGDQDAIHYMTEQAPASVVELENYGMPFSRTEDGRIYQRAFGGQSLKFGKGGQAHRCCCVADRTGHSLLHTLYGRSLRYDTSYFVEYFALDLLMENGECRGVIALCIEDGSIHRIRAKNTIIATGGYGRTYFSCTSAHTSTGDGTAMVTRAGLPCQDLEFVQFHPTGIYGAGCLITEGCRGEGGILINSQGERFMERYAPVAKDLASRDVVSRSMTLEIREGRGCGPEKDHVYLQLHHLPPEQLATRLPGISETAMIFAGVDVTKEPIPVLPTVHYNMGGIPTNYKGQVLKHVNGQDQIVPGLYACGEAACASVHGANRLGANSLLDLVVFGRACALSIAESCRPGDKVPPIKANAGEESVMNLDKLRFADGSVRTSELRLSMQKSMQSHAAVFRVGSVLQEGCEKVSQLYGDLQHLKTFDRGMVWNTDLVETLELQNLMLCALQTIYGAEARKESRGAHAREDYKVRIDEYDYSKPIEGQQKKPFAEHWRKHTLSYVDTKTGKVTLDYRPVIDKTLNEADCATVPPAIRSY
T1 sequence (P21913 31-282): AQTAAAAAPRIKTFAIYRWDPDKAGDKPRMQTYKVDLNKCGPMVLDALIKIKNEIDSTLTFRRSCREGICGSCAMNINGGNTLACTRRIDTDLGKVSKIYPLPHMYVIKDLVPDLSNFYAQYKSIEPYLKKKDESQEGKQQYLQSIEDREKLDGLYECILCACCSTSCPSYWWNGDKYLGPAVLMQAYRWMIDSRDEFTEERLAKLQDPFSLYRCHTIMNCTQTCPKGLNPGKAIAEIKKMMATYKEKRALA
T1 sequence (Q641Z9 1-169): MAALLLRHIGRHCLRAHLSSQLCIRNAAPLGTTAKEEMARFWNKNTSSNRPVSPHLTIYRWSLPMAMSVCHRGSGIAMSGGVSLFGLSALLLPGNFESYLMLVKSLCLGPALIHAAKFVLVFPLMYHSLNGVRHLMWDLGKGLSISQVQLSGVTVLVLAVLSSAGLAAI
T1 sequence (Q6PCT8 57-159): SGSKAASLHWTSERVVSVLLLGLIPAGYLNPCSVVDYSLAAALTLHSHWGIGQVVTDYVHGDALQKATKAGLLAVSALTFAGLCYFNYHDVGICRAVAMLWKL

Cc1nc(Nc2ncc(C(=O)Nc3c(C)cccc3Cl)s2)cc(N2CCN(CCO)CC2)n1 [dasatinib (free base)]
RCC II at 1.0XCmax (RCC II; [7]): 0
RCC II at 2.5XCmax (RCC II; [7]): 0
RCC II at 5XCmax (RCC II; [7]): 0
RCC II at 10XCmax (RCC II; [7]): 0
RCC II at 20XCmax (RCC II; [7]): 0
RCC II at 30XCmax (RCC II; [7]): 0
RCC II at 50XCmax (RCC II; [7]): 0
RCC II at 100XCmax (RCC II; [7]): 0
RCC I at 10XCmax (RCC I; [7]): 0
MMP measured by Rhodamine 123 at 1XCmax [1]: 0
MMP measured by Rhodamine 123 at 2.5XCmax [1]: 0
MMP measured by Rhodamine 123 at 5XCmax [1]: 0
MMP measured by Rhodamine 123 at 10XCmax [1]: 0
MMP measured by Rhodamine 123 at 20XCmax [1]: 0
MMP measured by Rhodamine 123 at 30XCmax [1]: 0
MMP measured by Rhodamine 123 at 50XCmax [1]: 0
MMP measured by Rhodamine 123 at 100XCmax [1]: 0
RCC V at 5XCmax (RCC V; [7]): 0
RCC V at 50XCmax (RCC V; [7]): 0
Swelling 1XCmax [2]: 0
Swelling 2.5XCmax [2]: 0
Swelling 5XCmax [2]: 0
Swelling 10XCmax [2]: 0
Swelling 20XCmax [2]: 0
Swelling 30XCmax [2]: 0
Swelling 50XCmax [2]: 0
Swelling 100XCmax [2]: 0
State 3 respiration driven by glutamate/malate at 1XCmax [3]: 0
State 3 respiration driven by succinate at 1XCmax [3]: 0
State 4 respiration driven by glutamate/malate at 1XCmax [3]: 0
State 4 respiration driven by succinate at 1XCmax [3]: 0
State 3 respiration driven by glutamate/malate at 2.5XCmax [3]: 0
State 3 respiration driven by succinate at 2.5XCmax [3]: 0
State 4 respiration driven by glutamate/malate at 2.5XCmax [3]: 0
State 4 respiration driven by succinate at 2.5XCmax [3]: 0
State 3 respiration driven by glutamate/malate at 5XCmax [3]: 0
State 3 respiration driven by succinate at 5XCmax [3]: 0
State 4 respiration driven by glutamate/malate at 5XCmax [3]: 0
State 4 respiration driven by succinate at 5XCmax [3]: 0
State 3 respiration driven by glutamate/malate at 10XCmax [3]: 0
State 3 respiration driven by succinate at 10XCmax [3]: 0
State 4 respiration driven by glutamate/malate at 10XCmax [3]: 0
State 4 respiration driven by succinate at 10XCmax [3]: 0
State 3 respiration driven by glutamate/malate at 20XCmax [3]: 0
State 3 respiration driven by succinate at 20XCmax [3]: 0
State 4 respiration driven by glutamate/malate at 20XCmax [3]: 0
State 4 respiration driven by succinate at 20XCmax [3]: 0
State 3 respiration driven by glutamate/malate at 30XCmax [3]: 0
State 3 respiration driven by succinate at 30XCmax [3]: 0
State 4 respiration driven by glutamate/malate at 30XCmax [3]: 0
State 4 respiration driven by succinate at 30XCmax [3]: 0
State 3 respiration driven by glutamate/malate at 50XCmax [3]: 0
State 3 respiration driven by succinate at 50XCmax [3]: 0
State 4 respiration driven by glutamate/malate at 50XCmax [3]: 0
State 4 respiration driven by succinate at 50XCmax [3]: 0
State 3 respiration driven by glutamate/malate at 100XCmax [3]: 0
State 3 respiration driven by succinate at 100XCmax [3]: 0
State 4 respiration driven by glutamate/malate at 100XCmax [3]: 0
State 4 respiration driven by succinate at 100XCmax [3]: 0
DILI potential (based on labeling) ([4]; 1 = DILI positive, 0 = negative): 0
Cmax ([5]; read-out: Cmax at µM, therapeutic maximal blood concentration): 0.18 µM
Cmax ([5]; therapeutic maximal blood concentration): 0.0858 µg/mL
RCC IV at 50XCmax (RCC IV; [7]): 0
Cytochrome c release 1XCmax [6]: 0
Cytochrome c release 2.5XCmax [6]: 0
Cytochrome c release 5XCmax [6]: 0
Cytochrome c release 10XCmax [6]: 0
Cytochrome c release 20XCmax [6]: 0
Cytochrome c release 30XCmax [6]: 0
Cytochrome c release 50XCmax [6]: 0
Cytochrome c release 100XCmax [6]: 0

CC(=O)c1c(C)c2cnc(Nc3ccc(N4CCNCC4)cn3)nc2n(C2CCCC2)c1=O.Cl [palbociclib hydrochloride]
RCC II at 1.0XCmax (RCC II; DMSO treated samples set as 1): 0
RCC II at 2.5XCmax (RCC II; DMSO treated samples set as 1): 0
RCC II at 5XCmax (RCC II; DMSO treated samples set as 1): 0
RCC II at 10XCmax (RCC II; DMSO treated samples set as 1): 0
RCC II at 20XCmax (RCC II; DMSO treated samples set as 1): 0
RCC II at 30XCmax (RCC II; DMSO treated samples set as 1): 0
RCC II at 50XCmax (RCC II; DMSO treated samples set as 1): 0
RCC II at 100XCmax (RCC II; DMSO treated samples set as 1): 0
RCC I at 10XCmax (RCC I; DMSO treated samples set as 1): 0
MMP measured by Rhodamine 123 at 1XCmax [1]: 0
MMP measured by Rhodamine 123 at 2.5XCmax [1]: 0
MMP measured by Rhodamine 123 at 5XCmax [1]: 0
MMP measured by Rhodamine 123 at 10XCmax [1]: 0
MMP measured by Rhodamine 123 at 20XCmax [1]: 0
MMP measured by Rhodamine 123 at 30XCmax [1]: 0
MMP measured by Rhodamine 123 at 50XCmax [1]: 0
MMP measured by Rhodamine 123 at 100XCmax [1]: 0
RCC V at 5XCmax (RCC V; DMSO treated samples set as 1): 0
RCC V at 50XCmax (RCC V; DMSO treated samples set as 1): 0
Swelling 1XCmax [2]: 0
Swelling 2.5XCmax [2]: 0
Swelling 5XCmax [2]: 0
Swelling 10XCmax [2]: 0
Swelling 20XCmax [2]: 0
Swelling 30XCmax [2]: 0
Swelling 50XCmax [2]: 0
Swelling 100XCmax [2]: 0
State 3 respiration driven by glutamate/malate at 1XCmax [3]: 0
State 3 respiration driven by succinate at 1XCmax [3]: 0
State 4 respiration driven by glutamate/malate at 1XCmax [3]: 0
State 4 respiration driven by succinate at 1XCmax [3]: 0
State 3 respiration driven by glutamate/malate at 2.5XCmax [3]: 0
State 3 respiration driven by succinate at 2.5XCmax [3]: 0
State 4 respiration driven by glutamate/malate at 2.5XCmax [3]: 0
State 4 respiration driven by succinate at 2.5XCmax [3]: 0
State 3 respiration driven by glutamate/malate at 5XCmax [3]: 0
State 3 respiration driven by succinate at 5XCmax [3]: 0
State 4 respiration driven by glutamate/malate at 5XCmax [3]: 0
State 4 respiration driven by succinate at 5XCmax [3]: 0
State 3 respiration driven by glutamate/malate at 10XCmax [3]: 0
State 3 respiration driven by succinate at 10XCmax [3]: 0
State 4 respiration driven by glutamate/malate at 10XCmax [3]: 0
State 4 respiration driven by succinate at 10XCmax [3]: 0
State 3 respiration driven by glutamate/malate at 20XCmax [3]: 0
State 3 respiration driven by succinate at 20XCmax [3]: 0
State 4 respiration driven by glutamate/malate at 20XCmax [3]: 0
State 4 respiration driven by succinate at 20XCmax [3]: 0
State 3 respiration driven by glutamate/malate at 30XCmax [3]: 0
State 3 respiration driven by succinate at 30XCmax [3]: 0
State 4 respiration driven by glutamate/malate at 30XCmax [3]: 0
State 4 respiration driven by succinate at 30XCmax [3]: 0
State 3 respiration driven by glutamate/malate at 50XCmax [3]: 0
State 3 respiration driven by succinate at 50XCmax [3]: 0
State 4 respiration driven by glutamate/malate at 50XCmax [3]: 0
State 4 respiration driven by succinate at 50XCmax [3]: 0
State 3 respiration driven by glutamate/malate at 100XCmax [3]: 0
State 3 respiration driven by succinate at 100XCmax [3]: 0
State 4 respiration driven by glutamate/malate at 100XCmax [3]: 0
State 4 respiration driven by succinate at 100XCmax [3]: 0
DILI potential (based on labeling) ([4]; 1 DILI positive, 0 negative according to labeling): 0
Cmax (ng or µg/ml) ([5]; human therapeutic maximal blood concentration): 0.116 µg/mL
Cmax ([5]; read-out: Cmax at µM, human therapeutic maximal blood concentration): 0.24 µM
RCC IV at 50XCmax (RCC IV; DMSO treated samples set as 1): 0
Cytochrome c release 1XCmax [6]: 0
Cytochrome c release 2.5XCmax [6]: 0
Cytochrome c release 5XCmax [6]: 0
Cytochrome c release 10XCmax [6]: 0
Cytochrome c release 20XCmax [6]: 0
Cytochrome c release 30XCmax [6]: 0
Cytochrome c release 50XCmax [6]: 0
Cytochrome c release 100XCmax [6]: 0
